From article PMC10924921, “Mi-2β promotes immune evasion in melanoma by activating EZH2 methylation” (Nature Communications, 2024)

Key:
Experiment in all cases: biochemical
Set-up in all cases: KINOMEscan active-site competition binding panel (468 kinase assays), per cent of control at 1000 nM
Settings in all cases: KINOMEscan per cent of control (binding competition); read-out: Percent Control
[1] = molecular target: T1, ABL1(T315I)-phosphorylated (Homo sapiens, UniProt P00519, T315I)
T1 construct: phosphorylated
Excerpt: (§1) Figure S7 / Percent Control

CDC2L5 = molecular target: T2, CDC2L5 (Homo sapiens, UniProt Q14004)
T2 construct: gene CDK13
Excerpt: as §1

CDK3 = CDK3 (Homo sapiens, UniProt Q00526)
Excerpt: as §1

CDKL1 = CDKL1 (Homo sapiens, UniProt Q00532)
Excerpt: as §1

CSNK1A1 = CSNK1A1 (Homo sapiens, UniProt P48729)
Excerpt: as §1

DCAMKL3 = molecular target: T3, DCAMKL3 (Homo sapiens, UniProt Q9C098)
T3 construct: gene DCLK3
Excerpt: as §1

EPHA5 = EPHA5 (Homo sapiens, UniProt P54756)
Excerpt: as §1

FGFR4 = FGFR4 (Homo sapiens, UniProt P22455)
Excerpt: as §1

FLT3(D835V) = FLT3(D835V) (Homo sapiens, UniProt P36888, D835V)
Excerpt: as §1

GRK7 = GRK7 (Homo sapiens, UniProt Q8WTQ7)
Excerpt: as §1

HCK = HCK (Homo sapiens, UniProt P08631)
Excerpt: as §1

LIMK1 = LIMK1 (Homo sapiens, UniProt P53667)
Excerpt: as §1

MLK2 = molecular target: T4, MLK2 (Homo sapiens, UniProt Q02779)
T4 construct: gene MAP3K10
Excerpt: as §1

OSR1 = molecular target: T5, OSR1 (Homo sapiens, UniProt O95747)
T5 construct: gene OXSR1
Excerpt: as §1

PAK4 = PAK4 (Homo sapiens, UniProt O96013)
Excerpt: as §1

PIK3CA(E542K) = PIK3CA(E542K) (Homo sapiens, UniProt P42336, E542K)
Excerpt: as §1

PRKCI = PRKCI (Homo sapiens, UniProt P41743)
Excerpt: as §1

RIOK1 = RIOK1 (Homo sapiens, UniProt Q9BRS2)
Excerpt: as §1

RIPK5 = molecular target: T6, RIPK5 (Homo sapiens, UniProt Q6XUX3)
T6 construct: gene DSTYK
Excerpt: as §1

[2] = molecular target: T7, RPS6KA4(Kin.Dom.2-C-terminal) (Homo sapiens, UniProt O75676)
T7 construct: Kin.Dom.2-C-terminal
Excerpt: as §1

SRC = SRC (Homo sapiens, UniProt P12931)
Excerpt: as §1

STK35 = STK35 (Homo sapiens, UniProt Q8TDR2)
Excerpt: as §1

TAK1 = molecular target: T8, TAK1 (Homo sapiens, UniProt O43318)
T8 construct: gene MAP3K7
Excerpt: as §1

WEE2 = WEE2 (Homo sapiens, UniProt P0C1S8)
Excerpt: as §1

HCK, sequence (P08631 whole entry): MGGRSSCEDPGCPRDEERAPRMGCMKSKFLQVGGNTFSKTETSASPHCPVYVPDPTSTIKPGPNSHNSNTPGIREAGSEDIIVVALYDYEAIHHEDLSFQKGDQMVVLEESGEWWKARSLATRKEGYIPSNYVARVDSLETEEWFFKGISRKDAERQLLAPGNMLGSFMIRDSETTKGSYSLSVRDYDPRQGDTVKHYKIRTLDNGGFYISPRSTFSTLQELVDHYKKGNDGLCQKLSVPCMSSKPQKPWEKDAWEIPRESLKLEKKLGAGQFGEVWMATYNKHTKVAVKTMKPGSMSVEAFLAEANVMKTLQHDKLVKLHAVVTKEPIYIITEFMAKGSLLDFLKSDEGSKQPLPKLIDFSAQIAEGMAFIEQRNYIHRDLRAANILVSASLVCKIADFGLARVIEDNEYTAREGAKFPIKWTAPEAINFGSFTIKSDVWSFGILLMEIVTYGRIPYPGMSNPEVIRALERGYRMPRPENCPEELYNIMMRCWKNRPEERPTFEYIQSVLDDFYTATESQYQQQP
PRKCI, sequence (P41743 whole entry): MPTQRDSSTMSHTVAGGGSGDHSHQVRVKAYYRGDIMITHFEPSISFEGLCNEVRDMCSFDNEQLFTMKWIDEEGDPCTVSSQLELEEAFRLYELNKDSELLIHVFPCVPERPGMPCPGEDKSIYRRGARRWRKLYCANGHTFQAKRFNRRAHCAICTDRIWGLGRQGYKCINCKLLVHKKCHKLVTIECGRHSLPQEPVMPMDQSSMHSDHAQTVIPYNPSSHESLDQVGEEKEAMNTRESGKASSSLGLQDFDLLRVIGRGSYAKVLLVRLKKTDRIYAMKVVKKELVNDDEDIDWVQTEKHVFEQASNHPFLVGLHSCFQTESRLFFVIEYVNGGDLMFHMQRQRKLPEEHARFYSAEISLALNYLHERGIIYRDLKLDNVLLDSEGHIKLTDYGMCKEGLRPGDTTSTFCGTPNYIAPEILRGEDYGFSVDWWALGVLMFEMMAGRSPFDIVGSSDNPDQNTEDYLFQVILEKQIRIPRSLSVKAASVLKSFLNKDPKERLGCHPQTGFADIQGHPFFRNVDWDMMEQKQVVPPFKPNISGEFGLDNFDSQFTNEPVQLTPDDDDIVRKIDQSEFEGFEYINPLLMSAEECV
EPHA5, sequence (P54756 whole entry): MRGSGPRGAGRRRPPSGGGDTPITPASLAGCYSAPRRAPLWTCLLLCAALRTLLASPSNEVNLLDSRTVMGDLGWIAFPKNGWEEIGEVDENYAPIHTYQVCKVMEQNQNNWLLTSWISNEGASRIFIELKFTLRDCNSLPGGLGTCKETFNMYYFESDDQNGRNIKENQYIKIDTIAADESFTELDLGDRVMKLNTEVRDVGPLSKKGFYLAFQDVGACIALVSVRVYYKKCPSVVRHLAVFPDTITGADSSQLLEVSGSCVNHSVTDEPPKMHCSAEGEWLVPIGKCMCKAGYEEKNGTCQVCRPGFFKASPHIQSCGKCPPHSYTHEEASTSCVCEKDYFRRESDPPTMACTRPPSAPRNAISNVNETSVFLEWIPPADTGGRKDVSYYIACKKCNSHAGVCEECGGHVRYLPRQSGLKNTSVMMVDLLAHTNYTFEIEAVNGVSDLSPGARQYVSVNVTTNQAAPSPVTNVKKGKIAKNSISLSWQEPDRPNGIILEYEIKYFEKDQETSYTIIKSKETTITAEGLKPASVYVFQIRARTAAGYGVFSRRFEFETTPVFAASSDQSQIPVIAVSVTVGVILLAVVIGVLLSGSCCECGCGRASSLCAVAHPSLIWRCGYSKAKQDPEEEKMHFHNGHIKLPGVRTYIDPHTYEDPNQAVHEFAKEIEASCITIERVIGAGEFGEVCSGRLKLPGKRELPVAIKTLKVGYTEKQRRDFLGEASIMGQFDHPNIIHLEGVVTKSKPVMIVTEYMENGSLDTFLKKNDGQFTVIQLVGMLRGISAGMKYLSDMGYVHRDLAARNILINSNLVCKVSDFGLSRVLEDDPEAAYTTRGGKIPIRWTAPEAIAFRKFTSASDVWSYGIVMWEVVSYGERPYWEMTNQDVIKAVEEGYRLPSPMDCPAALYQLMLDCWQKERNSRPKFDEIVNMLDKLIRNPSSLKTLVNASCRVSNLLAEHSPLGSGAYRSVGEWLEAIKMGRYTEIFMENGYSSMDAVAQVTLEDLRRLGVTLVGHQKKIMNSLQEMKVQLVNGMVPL
PAK4, sequence (O96013 whole entry): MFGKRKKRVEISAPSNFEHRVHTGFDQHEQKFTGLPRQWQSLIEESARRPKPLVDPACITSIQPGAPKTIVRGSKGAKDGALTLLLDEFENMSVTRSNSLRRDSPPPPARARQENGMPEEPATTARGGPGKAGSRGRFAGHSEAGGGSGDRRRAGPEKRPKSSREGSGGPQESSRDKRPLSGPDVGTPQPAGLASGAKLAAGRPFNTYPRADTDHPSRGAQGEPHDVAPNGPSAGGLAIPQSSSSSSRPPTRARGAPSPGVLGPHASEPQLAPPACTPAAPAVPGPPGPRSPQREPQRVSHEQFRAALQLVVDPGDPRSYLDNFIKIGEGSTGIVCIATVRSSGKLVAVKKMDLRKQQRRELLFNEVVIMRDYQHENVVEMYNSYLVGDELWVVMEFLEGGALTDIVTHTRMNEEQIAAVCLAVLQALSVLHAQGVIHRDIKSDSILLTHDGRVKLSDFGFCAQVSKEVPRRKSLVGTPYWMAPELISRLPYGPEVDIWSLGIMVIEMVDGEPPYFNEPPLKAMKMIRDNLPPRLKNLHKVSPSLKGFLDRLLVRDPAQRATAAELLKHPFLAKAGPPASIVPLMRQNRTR
T3 sequence (Q9C098 whole entry): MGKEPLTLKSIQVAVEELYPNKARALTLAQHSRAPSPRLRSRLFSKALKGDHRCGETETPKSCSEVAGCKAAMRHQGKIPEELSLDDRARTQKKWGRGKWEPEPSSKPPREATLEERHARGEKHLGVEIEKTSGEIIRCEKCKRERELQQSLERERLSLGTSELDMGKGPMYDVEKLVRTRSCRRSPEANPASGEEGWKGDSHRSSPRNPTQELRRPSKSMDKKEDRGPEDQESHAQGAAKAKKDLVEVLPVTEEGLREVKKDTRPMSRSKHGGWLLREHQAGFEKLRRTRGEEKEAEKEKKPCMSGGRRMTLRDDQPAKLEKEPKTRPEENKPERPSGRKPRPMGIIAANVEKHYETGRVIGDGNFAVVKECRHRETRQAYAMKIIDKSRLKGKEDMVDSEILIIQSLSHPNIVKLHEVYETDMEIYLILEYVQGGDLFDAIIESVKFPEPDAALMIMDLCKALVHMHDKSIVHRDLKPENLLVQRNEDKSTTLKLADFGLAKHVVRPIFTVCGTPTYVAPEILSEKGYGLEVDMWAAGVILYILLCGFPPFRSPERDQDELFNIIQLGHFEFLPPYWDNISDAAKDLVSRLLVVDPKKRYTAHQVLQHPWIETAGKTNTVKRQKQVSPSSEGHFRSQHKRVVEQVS
SRC, sequence (P12931 whole entry): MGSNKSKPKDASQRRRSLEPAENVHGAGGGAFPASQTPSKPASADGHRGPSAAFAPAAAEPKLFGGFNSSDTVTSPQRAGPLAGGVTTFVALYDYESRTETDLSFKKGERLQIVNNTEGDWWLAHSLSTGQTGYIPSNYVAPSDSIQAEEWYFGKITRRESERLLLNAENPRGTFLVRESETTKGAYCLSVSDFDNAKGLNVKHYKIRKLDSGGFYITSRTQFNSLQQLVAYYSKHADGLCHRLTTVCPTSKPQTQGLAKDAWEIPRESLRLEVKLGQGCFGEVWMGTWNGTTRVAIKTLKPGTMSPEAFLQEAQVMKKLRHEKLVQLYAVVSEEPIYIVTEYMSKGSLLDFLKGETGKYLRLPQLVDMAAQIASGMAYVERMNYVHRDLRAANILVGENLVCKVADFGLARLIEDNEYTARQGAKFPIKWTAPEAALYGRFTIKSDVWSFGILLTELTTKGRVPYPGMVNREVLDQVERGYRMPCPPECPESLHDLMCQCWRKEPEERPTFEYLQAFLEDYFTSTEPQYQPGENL
PIK3CA(E542K), sequence (P42336 whole entry E542K): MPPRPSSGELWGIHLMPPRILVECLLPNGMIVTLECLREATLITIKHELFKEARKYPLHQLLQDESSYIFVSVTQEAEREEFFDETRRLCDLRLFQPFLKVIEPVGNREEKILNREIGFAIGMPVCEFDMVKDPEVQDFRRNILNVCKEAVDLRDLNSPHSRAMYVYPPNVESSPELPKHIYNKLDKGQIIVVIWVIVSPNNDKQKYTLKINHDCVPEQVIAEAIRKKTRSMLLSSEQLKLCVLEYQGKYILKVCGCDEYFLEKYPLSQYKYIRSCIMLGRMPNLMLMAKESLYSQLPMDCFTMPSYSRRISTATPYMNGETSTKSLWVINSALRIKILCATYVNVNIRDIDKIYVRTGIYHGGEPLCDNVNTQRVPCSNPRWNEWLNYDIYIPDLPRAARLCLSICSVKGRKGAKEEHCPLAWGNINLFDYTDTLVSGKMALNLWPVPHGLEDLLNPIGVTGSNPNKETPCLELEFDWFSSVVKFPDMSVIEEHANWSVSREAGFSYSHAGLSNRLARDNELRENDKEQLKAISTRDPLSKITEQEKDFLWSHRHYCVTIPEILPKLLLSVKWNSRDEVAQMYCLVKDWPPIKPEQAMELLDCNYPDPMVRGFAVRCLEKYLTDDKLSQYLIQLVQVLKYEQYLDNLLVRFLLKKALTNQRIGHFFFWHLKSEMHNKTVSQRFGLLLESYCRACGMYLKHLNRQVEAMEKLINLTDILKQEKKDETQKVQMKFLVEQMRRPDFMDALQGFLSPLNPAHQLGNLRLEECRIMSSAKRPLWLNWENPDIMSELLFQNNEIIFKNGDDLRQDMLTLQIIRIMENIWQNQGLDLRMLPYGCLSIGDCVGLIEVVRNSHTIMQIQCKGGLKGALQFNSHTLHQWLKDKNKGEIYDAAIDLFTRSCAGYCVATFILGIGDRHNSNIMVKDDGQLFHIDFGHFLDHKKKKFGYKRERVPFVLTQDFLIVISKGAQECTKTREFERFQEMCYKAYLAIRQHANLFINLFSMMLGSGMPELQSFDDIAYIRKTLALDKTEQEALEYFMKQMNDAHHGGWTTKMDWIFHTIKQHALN

Cn1c(=O)[nH]c2ccc(-c3cccc(C(=O)NC4CCn5ccnc5C4)c3)cc21 (stereo not drawn) [Z36-MP5]
remaining binding at 1 µM [1]: 49%
remaining binding at 1 µM (CDC2L5): 55%
remaining binding at 1 µM (CDK3): 43%
remaining binding at 1 µM (CDKL1): 41%
remaining binding at 1 µM (CSNK1A1): 74%
remaining binding at 1 µM (DCAMKL3): 92%
remaining binding at 1 µM (EPHA5): 86%
remaining binding at 1 µM (FGFR4): 76%
remaining binding at 1 µM (FLT3(D835V)): 55%
remaining binding at 1 µM (GRK7): 90%
remaining binding at 1 µM (HCK): 95%
remaining binding at 1 µM (LIMK1): 85%
remaining binding at 1 µM (MLK2): 95%
remaining binding at 1 µM (OSR1): 73%
remaining binding at 1 µM (PAK4): 41%
remaining binding at 1 µM (PIK3CA(E542K)): 70%
remaining binding at 1 µM (PRKCI): 71%
remaining binding at 1 µM (RIOK1): 47%
remaining binding at 1 µM (RIPK5): 54%
remaining binding at 1 µM [2]: 59%
remaining binding at 1 µM (SRC): 97%
remaining binding at 1 µM (STK35): 81%
remaining binding at 1 µM (TAK1): 84%
remaining binding at 1 µM (WEE2): 96%
